# According to patent US20140004209A1, “AUTOPHAGY INDUCER AND INHIBITOR COMBINATION THERAPY FOR THE TREATMENT OF NEOPLASMS” (GENENTECH, INC., priority 2010, published 2014):
# “Also recorded” adds a separate entry of the source. Where two headings read alike, the source gives them in different places.
# Columns and labels:
# Type in all cases: cell-based, human
# PC3 cells [1] = assay: Autophagy markers in PC3 cells (EM AVs, GFP-LC3, LC3-II/LC3-I, MDC, AO)
# Akt = assay: Immunoblot of Akt and S6 phosphorylation in PC3 cells; settings: II-4 alone
# Source text: (§1) Western blot analysis, immunofluorescence, 1HC and TUNEL assay: For Western blot analysis, total protein lysates were subjected to SDS-PAGE and transferred to nitrocellulose. Antibodies used were: anti-Akt1, anti-Akt2, anti-Akt3, anti-total-Akt, anti-p-Akt (Ser473), anti-p-Akt (Thr308), anti-p-S6 (Ser235/236), anti-PARP and anti-cleaved caspase-3 (Cell Signaling Technology); anti-p-PRAS40 (Invitrogen); anti-p27^Kip1 (Santa Cruz Biotechnology); anti-LC3 (Novus); anti-LAMP2 and anti-Cathepsin D (BD Biosciences); and anti-GAPDH (Advanced Immunochemical Inc.). Primary antibodies were detected using IR Dye 800-conjugated (Rockland) and Alexa-Fluoro 680-conjugated (Molecular Probes) species-selective secondary antibodies. Detection and quantification were performed using an Odyssey infrared scanner (LICOR) using the manufacturer's software. For immunofluorescence staining, cells were fixed in 3% paraformaldehyde and permeabilized with 0.01% digitonin in PBS, followed by a rabbit polyclonal anti-LC3 (Abgent) primary antibody detected with a cy3-conjugated anti-rabbit secondary antibody (Jackson Immunoresearch). For IHC, formalin-fixed, paraffin-embedded specimens were collected. 5-μm-thick paraffin-embedded sections were stained using an anti-Ki-67 (MIB-1, DakoCytomation) antibody with the Dako ARK kit (Dako Corporation). Tissues were counterstained with haematoxylin, dehydrated, and mounted. In all cases, antigen retrieval was performed with the Dako Target Retrieval Kit as per manufacturer's instructions. For TUNEL assay, formalin-fixed, paraffin-embedded sections were stained using an in situ cell death detection kit (POD; Roche Diagnostic) according to the manufacturer's instructions.
# PC3 cells [2] = assay: Immunoblot of LAMP1, cathepsin D and p62 in PC3 cells
# Source text: as §1, with “Primary antibodies were detected using IR Dye 800-conjugated (Rockland) and Alexa-Fluoro 680-conjugated (Molecular Probes) species-selective secondary antibodies.” left out
# Because autophagy is a key function of the lysosomal compartment (Terman, A., B. Gustafsson, and U. T. Brunk, (2006), The lysosomal-mitochondrial axis theory of postmitotic aging and cell death. Chem Biol Interact. 163:29-37), we examined the lysosomal marker LAMPI and cathepsin D, the predominant lysosomal aspartic protease, by immunoblotting (FIG. 6, B and C). […] Cathepsin D is synthesized as a 43-kD preprocathepsin D that is cleaved cotranslationally and glycosylated to form a 46-kD procathepsin D, which is targeted to lysosomes yielding an intermediate that is further cleaved into a mature enzyme consisting of a 15-kD light chain and a 28-kD heavy chain.
structure (smiles),measurement,setting,value
"O=c1[nH]c2ccccc2n1C1CCN(Cc2ccc(-c3nc4cc5nc[nH]c5cc4nc3-c3ccccc3)cc2)CC1 [II-4, 1-(1-(4-(7-phenyl-1H-imidazo[4,5-g]quinoxalin-6-yl)benzyl)piperidin-4-yl)-1H-benzo[d]imidazol-2 (3H)-one]","AVO accumulation and apoptotic nuclei, II-4 and CQ (multispectral imaging flow cytometry)",PC3 cells [1],further increase in AVO accumulation in live cells and a concomitant increase in cells with condensed apoptotic nuclei
same,"AVO accumulation, agent alone (multispectral imaging flow cytometry)",PC3 cells [1],induced AVO accumulation without significant loss of viability
same,"AVs and nuclei by EM, Akti-1/2 and CQ","PC3 cells [1]; 5 μM Akti-1/2, 10 μM CQ, 0.5% FBS",accumulation of larger AVs and the appearance apoptotic nuclei
same,accumulation of LC3-II,PC3 cells [1]; II-4 alone,significant accumulation of LC3-II within 24 h
same,"accumulation of LC3-II, with CQ cotreatment",PC3 cells [1]; II-4 and 10 μM CQ,further enhanced upon CQ cotreatment
same,"induction of AV accumulation / autophagy, agent alone",PC3 cells [1]; listed as Akti-1/2,induced overt autophagy; also recorded: induced accumulation of AVs
same,phosphorylation of Akt on Ser473 and Thr308,Akt,effectively inhibited the phosphorylation of Akt on both Ser473 and Thr308 residues
same,phosphorylation of downstream target S6,Akt,significantly reduced the phosphorylation of downstream target S6
same,"cathepsin D forms, II-4 and CQ",PC3 cells [2],"the precursor forms of cathepsin D accumulated to even higher levels than either alone, whereas the mature 28-kD chain decreased gradually"
same,p62 level,PC3 cells [2],reduced the level of p62
same,LAMP1 levels,PC3 cells [2]; agent alone,increase in LAMP1 levels
same,p62 level,PC3 cells [2]; listed as Akti,caused a reduction in p62 levels
